{
  "source": "patent US10369145B2",
  "about": "“Coumarin derivatives and methods of use in treating hyperproliferative diseases” (DISCOVERYBIOMED, INC., priority 2013, dated 2019)",
  "key": {"RPMI-8226": {"system": "RPMI-8226", "experiment": "NCI 60 panel: RPMI-8226 (Leukemia)", "assay_type": "cell-based"}, "KM12": {"system": "KM12", "experiment": "NCI 60 panel: KM12 (Colon Cancer)", "assay_type": "cell-based"}, "T98G": {"system": "T98G", "experiment": "Complementary DBM in vitro profiling: T98G (CNS Cancer)", "assay_type": "cell-based", "protocol": "The compounds described herein are effective for inhibiting cellular proliferation in hyperproliferative cell types. To study the effects of these compounds, an assay was developed to differentiate the effects of the compounds on proliferating versus confluent cells. The assay design generates a proliferating density 24 hours after seeding and provides a 3-day active cell growth/doubling window in which to gauge the anti-proliferative effect of the compounds described herein. […] In this 3-day growth window, cell number increases with daily doublings across the 72-hour period (see FIG. 1).\nIn each assay design, compounds were added at the 24-hour timepoint after cell seeding. The effect of the compounds, relative to vehicle control and to VelCade (a proteasome inhibitor approved in the U.S. for treating relapsed multiple myeloma and mantle cell lymphoma) as a positive control, was assessed across the 3-day growth window for proliferating cells and on an already near confluent culture of cells for the same time period. Normal cells were handled in the same manner, with some adjustment of seeding density needed in select cases. […]\nCell number at the end of the assay was determined using the CELLTITER-GLO Luminescent Cell Viability Assay (Promega; Madison, Wis.). The CELLTITER-GLO Luminescent Cell Viability Assay is a homogeneous method of determining the number of viable cells in culture based on quantitation of the ATP present, an indicator of metabolically active cells. IC50 values were calculated. […]\nFor a typical screening experiment to identify the compounds, cells were seeded into 96- or 384-well microtiter plates at plating densities pre-determined for each cell line to ensure drug exposure occurs during the proliferative phase well before confluency is reached. […] Values were calculated for each of these three parameters if the level of activity was reached; however, if the effect was not reached or was exceeded, the value for that parameter was expressed as greater or less than the maximum or minimum concentration tested."}, "UACC-62": {"system": "UACC-62", "experiment": "NCI 60 panel: UACC-62 (Melanoma)", "assay_type": "cell-based"}, "OVCAR-8": {"system": "OVCAR-8", "experiment": "NCI 60 panel: OVCAR-8 (Ovarian Cancer)", "assay_type": "cell-based"}, "[1]": {"system": "WT cells (cloned non-cystic kidney tissue cells)", "experiment": "Concentration-response in primary cultures cloned from non-cystic kidney tissue", "assay_type": "cell-based", "settings": "72 hour treatment", "protocol": "The concentration-response effects of Compound DBM 228, Compound DBM 308, Compound DBM 101, and Compound DBM 328 were determined in primary cultures derived as ‘clones’ from cystic versus non-cystic kidney tissue. CRC graphs, IC50 values, and the percent maximum inhibition versus lowest doses without effect were calculated with GraphPad Prism software. […] There was also a marked separation in effect between hyperproliferative PKD cells (FIG. 5A and Table 3) and WT cells (FIG. 5B and Table 4)."}, "MDA-MB-435": {"system": "MDA-MB-435", "experiment": "NCI 60 panel: MDA-MB-435 (Melanoma)", "assay_type": "cell-based"}, "HCC-2998": {"system": "HCC-2998", "experiment": "NCI 60 panel: HCC-2998 (Colon Cancer)", "assay_type": "cell-based"}, "OVCAR-4": {"system": "OVCAR-4", "experiment": "NCI 60 panel: OVCAR-4 (Ovarian Cancer)", "assay_type": "cell-based"}, "786-0": {"system": "786-0", "experiment": "NCI 60 panel: 786-0 (Renal Cancer)", "assay_type": "cell-based"}, "SF-539": {"system": "SF-539", "experiment": "NCI 60 panel: SF-539 (CNS Cancer)", "assay_type": "cell-based"}, "ACHN": {"system": "ACHN", "experiment": "NCI 60 panel: ACHN (Renal Cancer)", "assay_type": "cell-based"}, "SNB-75": {"system": "SNB-75", "experiment": "NCI 60 panel: SNB-75 (CNS Cancer)", "assay_type": "cell-based"}, "A549": {"system": "A549", "experiment": "NCI 60 panel: A549 (Non-Small Cell Lung Cancer)", "assay_type": "cell-based"}, "CCRF-CEM": {"system": "CCRF-CEM", "experiment": "NCI 60 panel: CCRF-CEM (Leukemia)", "assay_type": "cell-based"}, "NCI-H226": {"system": "NCI-H226", "experiment": "NCI 60 panel: NCI-H226 (Non-Small Cell Lung Cancer)", "assay_type": "cell-based"}, "NCI/ADR-RES": {"system": "NCI/ADR-RES", "excerpt": "(§1) TGI means the drug concentration resulting in total growth inhibition or “cytostasis.” LC50 is the concentration of drug resulting in a 50% reduction in the measured cytosolic ATP at the end of the drug treatment as compared to that at the beginning, indicating a net loss of cells following treatment (cytotoxicity).\n(§2) A major limitation with the anti-mitotic drugs in particular and in conventional chemotherapeutics in general, is their susceptibility to cellular mechanisms of adaptive/intrinsic multi-drug resistance (i.e., MDR efflux pumps such as p-glycoprotein, MRP1)."}, "OVCAR-3": {"system": "OVCAR-3", "excerpt": "as §1, §2"}, "BT-549": {"system": "BT-549", "experiment": "NCI 60 panel: BT-549 (Breast Cancer)", "assay_type": "cell-based"}, "A498": {"system": "A498", "experiment": "NCI 60 panel: A498 (Renal Cancer)", "assay_type": "cell-based"}, "[2]": {"settings": "read-out: LC50 (the source's name)"}},
  "note": "Where two headings read alike, the source gives them in different places.",
  "data": [
    {"smiles": "COc1ccccc1Nc1nc(-c2cc3cccc(N)c3oc2=O)cs1", "note": "[Compound DBM 228]", "values": [
      {"measurement": "GI50", "setting": "RPMI-8226", "value": 0.238, "unit": "µM"},
      {"measurement": "TGI", "setting": "RPMI-8226", "value": 43.9, "unit": "µM"},
      {"measurement": "CC50", "setting": "RPMI-8226; [2]", "value": "> 100", "unit": "µM"},
      {"measurement": "GI50", "setting": "KM12", "value": 0.0705, "unit": "µM"},
      {"measurement": "TGI", "setting": "KM12", "value": 13.4, "unit": "µM"},
      {"measurement": "CC50", "setting": "KM12; [2]", "value": "> 100", "unit": "µM"},
      {"measurement": "GI50", "setting": "T98G", "value": 0.467, "unit": "µM"},
      {"measurement": "TGI", "setting": "T98G", "value": 3.97, "unit": "µM"},
      {"measurement": "CC50", "setting": "T98G; [2]", "value": 17.6, "unit": "µM"},
      {"measurement": "GI50", "setting": "UACC-62", "value": 0.0511, "unit": "µM"},
      {"measurement": "LC50 (lethal concentration, 50% net cell kill)", "setting": "UACC-62", "value": "> 100", "unit": "µM"},
      {"measurement": "TGI", "setting": "UACC-62", "value": 28.2, "unit": "µM"},
      {"measurement": "GI50", "setting": "OVCAR-8", "value": 0.31, "unit": "µM"},
      {"measurement": "TGI", "setting": "OVCAR-8", "value": 13.2, "unit": "µM"},
      {"measurement": "CC50", "setting": "OVCAR-8; [2]", "value": "> 100", "unit": "µM"},
      {"measurement": "IC50", "setting": "[1]", "value": "> 100", "unit": "µM"},
      {"measurement": "Max inhibition", "setting": "[1]", "value": 49, "unit": "%"},
      {"measurement": "GI50", "setting": "MDA-MB-435", "value": 0.0231, "unit": "µM"},
      {"measurement": "TGI", "setting": "MDA-MB-435", "value": 0.0679, "unit": "µM"},
      {"measurement": "CC50", "setting": "MDA-MB-435; [2]", "value": 69.5, "unit": "µM"},
      {"measurement": "GI50", "setting": "HCC-2998", "value": 1.05, "unit": "µM"},
      {"measurement": "TGI", "setting": "HCC-2998", "value": 16.5, "unit": "µM"},
      {"measurement": "CC50", "setting": "HCC-2998; [2]", "value": "> 100", "unit": "µM"},
      {"measurement": "GI50", "setting": "OVCAR-4", "value": 1.35, "unit": "µM"},
      {"measurement": "TGI", "setting": "OVCAR-4", "value": 25, "unit": "µM"},
      {"measurement": "CC50", "setting": "OVCAR-4; [2]", "value": "> 100", "unit": "µM"},
      {"measurement": "GI50", "setting": "786-0", "value": 0.709, "unit": "µM"},
      {"measurement": "TGI", "setting": "786-0", "value": 15.9, "unit": "µM"},
      {"measurement": "CC50", "setting": "786-0; [2]", "value": 89.4, "unit": "µM"},
      {"measurement": "GI50", "setting": "SF-539", "value": 0.109, "unit": "µM"},
      {"measurement": "TGI", "setting": "SF-539", "value": 0.85, "unit": "µM"},
      {"measurement": "CC50", "setting": "SF-539; [2]", "value": 29.8, "unit": "µM"},
      {"measurement": "GI50", "setting": "ACHN", "value": 1.49, "unit": "µM"},
      {"measurement": "TGI", "setting": "ACHN", "value": 15.9, "unit": "µM"},
      {"measurement": "CC50", "setting": "ACHN; [2]", "value": 42.7, "unit": "µM"},
      {"measurement": "GI50", "setting": "SNB-75", "value": 0.0481, "unit": "µM"},
      {"measurement": "CC50", "setting": "SNB-75; [2]", "value": "> 100", "unit": "µM"},
      {"measurement": "GI50", "setting": "A549", "value": 0.097, "unit": "µM"},
      {"measurement": "TGI", "setting": "A549", "value": 22.6, "unit": "µM"},
      {"measurement": "CC50", "setting": "A549; [2]", "value": "> 100", "unit": "µM"},
      {"measurement": "GI50", "setting": "CCRF-CEM", "value": 0.177, "unit": "µM"},
      {"measurement": "LC50 (50% lethal concentration)", "setting": "CCRF-CEM", "value": "> 100", "unit": "µM"},
      {"measurement": "TGI", "setting": "CCRF-CEM", "value": 15.4, "unit": "µM"},
      {"measurement": "GI50", "setting": "NCI-H226", "value": 11.2, "unit": "µM"},
      {"measurement": "TGI", "setting": "NCI-H226", "value": 37.2, "unit": "µM"},
      {"measurement": "CC50", "setting": "NCI-H226; [2]", "value": "> 100", "unit": "µM"},
      {"measurement": "CC50", "setting": "NCI/ADR-RES", "value": "> 100", "unit": "µM"},
      {"measurement": "potency in multi-drug resistant line, in words (FIG. 9)", "setting": "NCI/ADR-RES; NCI-ADR/RES versus drug-responsive cells", "value": "remained potent"},
      {"measurement": "GI50", "setting": "NCI/ADR-RES; NCI/ADR-RES", "value": 0.0459, "unit": "µM"},
      {"measurement": "TGI", "setting": "NCI/ADR-RES; NCI/ADR-RES", "value": 0.327, "unit": "µM"},
      {"measurement": "IC50", "setting": "NCI/ADR-RES; read-out: potency in the NCI-ADR/RES cell line, multi-drug resistant NCI-ADR/RES", "value": 0.0445, "unit": "µM"},
      {"measurement": "CC50", "setting": "OVCAR-3", "value": 24.2, "unit": "µM"},
      {"measurement": "GI50", "setting": "OVCAR-3; OVCAR-3", "value": 0.0456, "unit": "µM"},
      {"measurement": "TGI", "setting": "OVCAR-3; OVCAR-3", "value": 0.322, "unit": "µM"},
      {"measurement": "GI50", "setting": "OVCAR-3; OVCAR-3, as stated in text", "value": 0.05, "unit": "µM"},
      {"measurement": "GI50", "setting": "BT-549", "value": 0.239, "unit": "µM"},
      {"measurement": "TGI", "setting": "BT-549", "value": 12.3, "unit": "µM"},
      {"measurement": "CC50", "setting": "BT-549; [2]", "value": "> 100", "unit": "µM"},
      {"measurement": "GI50", "setting": "A498", "value": 0.0354, "unit": "µM"},
      {"measurement": "TGI", "setting": "A498", "value": 4.42, "unit": "µM"},
      {"measurement": "CC50", "setting": "A498; [2]", "value": "> 100", "unit": "µM"}
    ]}
  ]
}
